Data: patent publication US20040082558A1, “Administration of estradiol metabolites for inhibition of drug-induced nephrotoxicity” (priority 2002, published 2004)
Marks after values point to notes of the source that are not given here.

Key:
Format in all cases: in vivo, rat
[1] = system: PAN-nephropathic rats; assay: Acute measurements of renal hemodynamics and excretory function at 12 weeks; details: 12 weeks of treatment
Protocol: (§1) After baseline metabolic parameters were measured, animals were randomly assigned to receive subcutaneous saline (3 ml/kg; Control group, n=9) or puromycin aminonucleoside (PAN) (75 mg/kg; drug-induced nephrotoxic animals, n=26). PAN is a drug widely used to produce drug-induced nephrotoxicity in laboratory animals. Grond, J., et al., Contributions to Nephrology 60:83 (1988), the disclosure of which is incorporated herein by reference. Injections of PAN (20 mg/kg) were repeated after 2, 4, 8 and 10 weeks of treatment. Three hours after the initial injections, control animals were implanted with osmotic minipumps (model 2ML4, Alza, Palo Alto, Calif.) containing vehicle (polyethylene glycol 400, 2.5 μl/hour), whereas PAN-treated animals were implanted with osmotic minipumps containing either vehicle (PAN group, n=13) or 2-hydroxyestradiol (10 μg/kg/hour, PAN+2OHE group, n=13). Assignment to the PAN and PAN+2OHE groups was random. Six animals in the PAN group and 2 animals in the PAN+2OHE group died during the treatment, and these animals were not used in the final data analysis.
At 12 weeks into treatment, animals were anesthetized with pentobarbital (45 mg/kg i.p.) and instrumented for measurements of renal hemodynamics and excretory function. Two polyethylene (PE)-50 catheters were inserted into left jugular vein for delivery of supplemental anesthetics and saline infusion (50 μl/min), respectively. Another PE-50 catheter was inserted into left carotid artery and connected to a blood-pressure analyzer (Micro-Med., Inc., Louisville, Ky.) for continuous measurement of blood pressure and heart rate. A PE-10 catheter was inserted into the left ureter to facilitate collection of urine, and a flow probe (Model 1RB; Transonic Systems, Inc., Ithaca, N.Y.) was placed on the left renal artery for determination of renal blood flow, which was used to calculate renal vascular resistance. Next, an infusion of ^14C-inulin (0.035 μCi/20 μl saline/min) was initiated and after 60 minutes, two 30-minute clearance periods were conducted. A mid-point blood sample (300 μl) was collected and plasma and urine ^14C-inulin radioactivity was measured. Renal clearance of ^14C-inulin was calculated as an estimate of glomerular filtration rate.

[2] = system: proliferating cell nuclear antigen (PCNA); assay: Glomerular immunohistochemical staining for PCNA, quantitative image analysis; details: 12 weeks of treatment, kidney sections
Protocol: (§2) Animals were killed by an overdose of anesthetic and kidneys were removed and weighed. One kidney was fixed in 10% formalin buffer and the second kidney was quick-frozen in liquid nitrogen and stored at −70° C. Kidney tissue samples were sectioned and processed into paraffin blocks for light microscopy. For labeling of collagen IV, renal cortical segments (5 μm) were incubated overnight at 4° C. with rabbit anti-mouse collagen IV antibody (dilution 1/500 ) obtained from Chemicon International Inc. (Temecula, Calif.). A primary monoclonal mouse antibody ( 1/200 dilution; Dako Corporation, Carpenteria, Calif.) was used to label proliferating cell nuclear antigen (PCNA). […] Nonspecific staining was assessed by replacing the primary antibody with phosphate buffered saline. […] Immunochemical staining for collagen IV and PCNA quantitatively was done with a SAMBA 4000 image analyzer (Image Products International, Chantilly, Va.) using specialized computer software (Immuno-Analysis, version 4.1, Microsoft, Richmond, Wash.), a color video camera and a Compaq computer. […] Ten high power fields (×400) were assessed for staining density or positively marked cells for ED-1. […] Staining intensity of positive areas was also assessed (mean optical density) and a mean quick score was then calculated (mean optical density×labeling index).

[3] = system: PAN-nephropathic rats; assay: Metabolic cage measurements (24-hour urine, intake, plasma) in PAN-nephropathic rats
Protocol: A total of thirty-five, male Sprague Dawley rats (approximately 290 grams) were used. Rats were housed in the University of Pittsburgh Medical Center animal care facility (temperature, 22° C.; light cycle, 12 hours; relative humidity, 55%). Animals were fed Pro Lab RMH 3000 rodent diet (PMI Nutrition Inc., St Louis, Mo.) and were given water ad libitum. Institutional guidelines for animal welfare were followed, and the University of Pittsburgh Institutional Animal Care and Use Committee approved experimental protocols.
Before initiating treatment, and 3, and 6 and 11 weeks into the treatments, animals were placed in metabolic cages and allowed to acclimatize for two days before conducting the 24-hour measurements of urine volume, food and water intake and urinary sodium, potassium, creatinine, and protein excretion. Tail vein blood samples were also taken for measurement of plasma sodium, potassium, albumin and creatinine. Plasma and urine samples were analyzed for sodium and potassium concentrations using a flame photometer (Model IL-943; Instrumentations Laboratory Inc., Lexington, Ma.) and for creatinine concentrations using a creatinine analyzer (Creatinine Analyzer 2, Beckman Instrument, Inc., Fullerton Calif., USA). Total urine proteins were measured by a spectrophotometric assay using bicinchoninic acid reagent (Pierce; Rockford, Ill.) and a modification of Lowry method. Lowry, O. H., et al., J. Biol. Chem. 193: 265 (1951), the disclosure of which is incorporated herein by reference.
as §1

[4] = system: PAN-treated rats; assay: Mortality during 12-week treatment of PAN-treated rats
Protocol: as §1

[5] = system: PAN-nephropathic rats; assay: Plasma testosterone radioimmunoassay; details: 12 weeks of treatment, male rats
Protocol: An aliquot of mid-point blood sample drawn during the first clearance period was used for testosterone measurements. Plasma testosterone levels were determined by radioimmunoassay using a commercial kit provided by ICN Biomedicals, Inc. (Costa Mesa, Calif.) according to the protocol of the manufacturer.

[6] = system: ED1 positive cells; assay: Immunohistochemical staining for ED1 positive cells (macrophage infiltration) in glomeruli and interstitium; details: 12 weeks of treatment, kidney sections
Protocol: as §2

[7] = system: collagen IV; assay: Glomerular immunohistochemical staining for collagen IV, quantitative image analysis; details: 12 weeks of treatment, kidney sections
Protocol: as §2

C[C@]12CC[C@@H]3c4cc(O)c(O)cc4CC[C@H]3[C@@H]1CC[C@@H]2O [2-OHE, 2-hydroxyestradiol]
Blood pressure (in words) [1]: abolished PAN-induced changes in blood pressure
GFR, inulin clearance (in words) [1]: significantly attenuated PAN-induced changes in GFR
Hematocrit [1]: 30 ± 3%
Left Kidney [1]: 2.34 ± 0.09 g
Glomerular Filtration Rate ([1]; 14C-inulin clearance): 0.54 ± 0.06^b ml/min/g kidney
Body Weight ([1]; acute experiment): 353 ± 15
Mean Blood Pressure ([1]; anesthetized): 138.2 ± 4^b mm Hg
Renal Blood Flow ([1]; anesthetized): 2.80 ± 0.18 ml/min/g kidney
Renal Plasma Flow ([1]; anesthetized): 1.96 ± 0.12 ml/min/g kidney
Renal Vascular Resistance ([1]; anesthetized): 58.5 ± 4.5 mm Hg/ml/min/g kid
Urine Volume ([1]; anesthetized): 3.33 ± 0.26 μl/min/g kidney
Labeling index of glomerular immunoreactive PCNA (in words, FIG. 3) [2]: significantly reduced the labeling index of glomerular immunoreactive PCNA
Body Weight ([3]; 0 wks of treatment (baseline)): 291 ± 5 g
Creatinine Excretion ([3]; 0 wks of treatment (baseline)): 13.0 ± 1.0 mg/day
FE - K+ (fractional excretion of potassium) ([3]; 0 wks of treatment (baseline)): 11.6 ± 1.4%
FE - Na+ (fractional excretion of sodium) ([3]; 0 wks of treatment (baseline)): 0.18 ± 0.03%
Fluid Intake ([3]; 0 wks of treatment (baseline)): 5.37 ± 0.25 mL/h/kg
Food Intake ([3]; 0 wks of treatment (baseline)): 76 ± 2 g/kg/day
Plasma Cholesterol ([3]; 0 wks of treatment (baseline)): 51.2 ± 2.2 mg/dL
Potassium Excretion ([3]; 0 wks of treatment (baseline)): 7.54 ± 0.52 mEq/day/kg
Sodium Excretion ([3]; 0 wks of treatment (baseline)): 3.35 ± 0.18 mEq/day/kg
Urine Volume ([3]; 0 wks of treatment (baseline)): 1.68 ± 0.167 mL/h/kg
Creatinine Excretion ([3]; 3 wks of treatment): 10.9 ± 0.7 mg/day
FE - K+ (fractional excretion of potassium) ([3]; 3 wks of treatment): 32.1 ± 4.4 %
FE - Na+ (fractional excretion of sodium) ([3]; 3 wks of treatment): 0.50 ± 0.10%
Fluid Intake ([3]; 3 wks of treatment): 7.04 ± 0.667 mL/h/kg
Food Intake ([3]; 3 wks of treatment): 75 ± 4 g/kg/day
Plasma Cholesterol ([3]; 3 wks of treatment): 315 ± 39.3 mg/dL
Potassium Excretion ([3]; 3 wks of treatment): 12.3 ± 0.61 mEq/day/kg
Sodium Excretion ([3]; 3 wks of treatment): 5.76 ± 0.57 mEq/day/kg
Urine Volume ([3]; 3 wks of treatment): 3.62 ± 0.292 mL/h/kg
Creatinine Excretion ([3]; 6 wks of treatment): 9.8 ± 0.7 mg/day
FE - K+ (fractional excretion of potassium) ([3]; 6 wks of treatment): 17.3 ± 2.5 %
FE - Na+ (fractional excretion of sodium) ([3]; 6 wks of treatment): 0.34 ± 0.04%
Fluid Intake ([3]; 6 wks of treatment): 5.92 ± 0.5 mL/h/kg
Food Intake ([3]; 6 wks of treatment): 60 ± 5 g/kg/day
Plasma Cholesterol ([3]; 6 wks of treatment): 248.3 ± 19.3 mg/dL
Potassium Excretion ([3]; 6 wks of treatment): 9.17 ± 0.63 mEq/day/kg
Sodium Excretion ([3]; 6 wks of treatment): 4.21 ± 0.43 mEq/day/kg
Urine Volume ([3]; 6 wks of treatment): 2.99 ± 0.292 mL/h/kg
Creatinine Excretion ([3]; 11 wks of treatment): 12.8 ± 2.8 mg/day
FE - K+ (fractional excretion of potassium) ([3]; 11 wks of treatment): 29.7 ± 1.7 %
FE - Na+ (fractional excretion of sodium) ([3]; 11 wks of treatment): 0.37 ± 0.04%
Fluid Intake ([3]; 11 wks of treatment): 6.12 ± 0.583 mL/h/kg
Food Intake ([3]; 11 wks of treatment): 58 ± 6 g/kg/day
Plasma Cholesterol ([3]; 11 wks of treatment): 340.6 ± 27.3 mg/dL
Potassium Excretion ([3]; 11 wks of treatment): 8.36 ± 1.25 mEq/day/kg
Sodium Excretion ([3]; 11 wks of treatment): 3.12 ± 0.66 mEq/day/kg
Urine Volume ([3]; 11 wks of treatment): 3.44 ± 0.312 mL/h/kg
Creatinine clearance (in words, FIGS. 1B and 1C) ([3]; chronic treatment): attenuated the decline in creatinine clearance caused by PAN
Plasma creatinine levels (in words, FIG. 1A) ([3]; chronic treatment): attenuated PAN-induced increases in plasma creatinine levels
UPE corrected for creatinine clearance (UPE/CrCl; in words, FIG. 2B) ([3]; chronic treatment): this effect became even more significant
Urinary protein excretion (UPE; in words, FIG. 2A) ([3]; chronic treatment): reduced PAN-induced increases in urinary protein excretion
Reduction of PAN-induced mortality ([4]; 2-hydroxyestradiol 10 μg/kg/hour by osmotic minipump): 66%
Animals died during the treatment ([4]; n=13 per group): 2 animals
Plasma testosterone levels [5]: 0.91 ± 0.22 ng/mL
Number of ED1 positive cells in glomeruli and interstitium (in words, FIG. 4) [6]: significantly (P<0.001) reduced the number of inflammatory cells in glomeruli and in the interstitium
Glomerular collagen IV, labeling index (in words, FIGS. 5 and 6) [7]: significantly reduced the labeling index of glomerular immunoreactive collagen IV
